The text below walks through data of patent US20170334899A1, “AMINO-SUBSTITUTED ISOTHIAZOLES” (Bayer Pharma Aktiengesellschaft, priority 2014, published 2017).

For test [1], the target named is T1, catalytic domain of human Bub1 (amino acids 704-1085) (Homo sapiens, UniProt O43683).
T1 construct: catalytic domain of human Bub1 (amino acids 704-1085); His6 (N); made in house; host or cells: insect cells (Hi5)
Briefly: Bub1 kinase assay (TR-FRET). Conditions: 10 μM ATP, avg, read-out: Bub1 avg (IC50 [mol/l]). The test is classed as biochemical. The essentials: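 Readout is the 665/620 nm TR-FRET ratio from anti-phosphoserine antibody, Eu-labelled anti-mouse IgG and streptavidin-XL665, scaled between no-enzyme and uninhibited controls. Reaction: 1 μM biotinylated peptide, 10 μM ATP, 60 min, 22 °C, after 15 min compound preincubation with His6-Bub1 (704-1085, insect-expressed, ~200 ng/ml).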

The target in a further test is T2, CDK2/CycE (Homo sapiens, UniProt P24941).
T2 construct: GST; purchased ProQinase GmbH (Freiburg, Germany); host or cells: insect cells (Sf9)
Briefly: CDK2/CycE kinase assay (TR-FRET). The test is classed as biochemical. Conditions: avg, read-out: CDK2 avg (IC50 [mol/l]). The essentials: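 Read-out is a TR-FRET 665/620 nm emission ratio from EDTA-stopped reactions detected with anti-pRB(pSer807/pSer811), Eu-labelled anti-mouse IgG and streptavidin-XL665, scaled between no-enzyme and uninhibited wells. Reaction: Sf9-expressed GST-CDK2/GST-CycE, 15 min compound preincubation, 10 μM ATP, 0.75 μM biotin-peptide, 25 min, 22° C., pH 8.0 Tris buffer.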

T1 sequence (O43683 704-1085): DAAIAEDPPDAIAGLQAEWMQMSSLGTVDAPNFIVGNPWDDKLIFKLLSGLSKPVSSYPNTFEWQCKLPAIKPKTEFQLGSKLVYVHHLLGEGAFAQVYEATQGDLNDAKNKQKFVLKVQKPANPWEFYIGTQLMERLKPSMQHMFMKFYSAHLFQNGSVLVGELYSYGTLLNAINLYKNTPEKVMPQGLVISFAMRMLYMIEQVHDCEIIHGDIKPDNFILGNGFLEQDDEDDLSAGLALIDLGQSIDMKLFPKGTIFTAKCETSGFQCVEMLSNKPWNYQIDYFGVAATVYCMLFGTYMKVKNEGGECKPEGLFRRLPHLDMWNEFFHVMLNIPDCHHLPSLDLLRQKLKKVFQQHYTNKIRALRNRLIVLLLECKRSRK

Turning to `Cc1nsc(Nc2cnc(C(F)(F)F)cn2)c1C(=O)Nc1ccc(OCCNC(=O)OC(C)(C)C)c(F)c1` [Example 215, tert-butyl [2-(2-fluoro-4-{[(3-methyl-5-{[5-(trifluoromethyl)pyrazin-2-yl]amino}-1,2-thiazol-4-yl)carbonyl]amino}phenoxy)ethyl]carbamate], the IC50 (in test [1]; on CDK2/CycE) was greater than 20 µM in each case.
On to `Cc1nsc(Nc2cnc3ccccc3n2)c1C(=O)Nc1ccc(OC2CCNCC2)nc1` [Example 19, 3-Methyl-N-[6-(piperidin-4-yloxy)pyridin-3-yl]-5-(quinoxalin-2-ylamino)-1,2-thiazole-4-carboxamide], for which the IC50 (in test [1]; on CDK2/CycE) was no less than 20 µM throughout.
Regarding `Cc1nsc(Nc2cncc(C(F)(F)F)n2)c1C(=O)Nc1ccc(OC2CCCN(C(=O)OC(C)(C)C)C2)nc1` (stereo not shown) [Example 189, tert-butyl 3-[(5-{[(3-methyl-5-{[6-(trifluoromethyl)pyrazin-2-yl]amino}-1,2-thiazol-4-yl)carbonyl]amino}pyridin-2-yl)oxy]piperidine-1-carboxylate], the IC50 (in test [1]; at CDK2/CycE) was greater than 20 µM each time.
As to `Cc1nsc(Nc2cncc(C(F)(F)F)n2)c1C(=O)Nc1ccc(OCC2CCN(C(=O)OC(C)(C)C)CC2)nc1` [Example 226, tert-butyl 4-{[(5-{[(3-methyl-5-{[6-(trifluoromethyl)pyrazin-2-yl]amino}-1,2-thiazol-4-yl)carbonyl]amino}pyridin-2-yl)oxy]methyl}piperidine-1-carboxylate], the IC50 (in test [1]; at CDK2/CycE) was greater than 20 µM each time.
On to `Cc1cc(C)n(-c2ccccc2NC(=O)c2c(C)nsc2Nc2cnc3ccccc3n2)n1` [Example 243, N-[2-(3,5-dimethyl-1H-pyrazol-1-yl)phenyl]-3-methyl-5-(quinoxalin-2-ylamino)-1,2-thiazole-4-carboxamide], for which the IC50 (in test [1]; at CDK2/CycE) was greater than 20 µM in each case.
`CNC(=O)c1ccc(NC(=O)c2c(C)nsc2Nc2cnc3ccccc3n2)cc1F` [Example 207, N-[3-fluoro-4-(methylcarbamoyl)phenyl]-3-methyl-5-(quinoxalin-2-ylamino)-1,2-thiazole-4-carboxamide]: the IC50 (in test [1]; at CDK2/CycE) was greater than 20 µM in each case.
As for `Cc1nsc(Nc2cc(C#N)ccn2)c1C(=O)Nc1ccc(OCCC(=O)OC(C)(C)C)nc1` [Example 200, tert-butyl 3-({5-[({5-[(4-cyanopyridin-2-yl)amino]-3-methyl-1,2-thiazol-4-yl}carbonyl)amino]pyridin-2-yl}oxy)propanoate], the IC50 (in test [1]; on CDK2/CycE) was greater than 20 µM throughout.
On to `Cc1nsc(Nc2cc(C#N)ccn2)c1C(=O)Nc1ccc(NC(=O)OC(C)(C)C)cc1` [Example 177, tert-butyl {4-[({5-[(4-cyanopyridin-2-yl)amino]-3-methyl-1,2-thiazol-4-yl}carbonyl)amino]phenyl}carbamate], for which the IC50 (in test [1]; on CDK2/CycE) was greater than 20 µM each time.
Turning to `Cc1nsc(Nc2cncc(C(F)(F)F)n2)c1C(=O)Nc1ccc(C(=O)NC2CCN(CC(F)F)CC2)cc1` [Example 225, N-N-(4-{[1-(2,2-difluoroethyl)piperidin-4-yl]carbamoyl}phenyl)-3-methyl-5-{[6-(trifluoromethyl)pyrazin-2-yl]amino}-1,2-thiazole-4-carboxamide], the IC50 (in test [1]; at CDK2/CycE) was greater than 20 µM each time.
Turning to `Cc1nsc(Nc2cnc3ccccc3n2)c1C(=O)Nc1ccc(C(N)=O)c(F)c1` [Example 201, N-(4-carbamoyl-3-fluorophenyl)-3-methyl-5-(quinoxalin-2-ylamino)-1,2-thiazole-4-carboxamide], the IC50 (in test [1]; on CDK2/CycE) was greater than 20 µM throughout.
On to `Cc1nsc(Nc2cnc3ccccc3n2)c1C(=O)Nc1ccc(OC2CCN(C(=O)OC(C)(C)C)CC2)nc1` [Example 18, tert-Butyl 4-{[5-({[3-methyl-5-(quinoxalin-2-ylamino)-1,2-thiazol-4-yl]carbonyl}-amino)pyridin-2-yl]oxy}piperidine-1-carboxylate], for which the IC50 (in test [1]; at CDK2/CycE) was no less than 20 µM throughout.
In the case of `Cc1nsc(Nc2cc(C#N)ccn2)c1C(=O)Nc1cccc(C(=O)OC(C)(C)C)c1` [Example 239, tert-butyl 3-[({5-[(4-cyanopyridin-2-yl)amino]-3-methyl-1,2-thiazol-4-yl}carbonyl)amino]benzoate], the IC50 (in test [1]; at CDK2/CycE) was greater than 20 µM throughout.
Turning to `Cc1nsc(Nc2cnc(C(F)(F)F)cn2)c1C(=O)Nc1ccc(OCCN)c(F)c1` [Example 221, 3-N-[4-(2-aminoethoxy)-3-fluorophenyl]-3-methyl-5-{[5-(trifluoromethyl)pyrazin-2-yl]amino}-1,2-thiazole-4-carboxamide], the IC50 (in test [1]; at CDK2/CycE) was greater than 20 µM throughout.
For the molecule `Cc1nsc(Nc2cc(C#N)ccn2)c1C(=O)Nc1ccc(C(=O)OC(C)(C)C)cc1` [Example 182, tert-butyl 4-[({5-[(4-cyanopyridin-2-yl)amino]-3-methyl-1,2-thiazol-4-yl}carbonyl)amino]benzoate], the IC50 (in test [1]; on CDK2/CycE) was greater than 20 µM each time.
Consider `Cc1nsc(Nc2cnc3ccccc3n2)c1C(=O)Nc1ccc(OC2CCN(CC(F)F)CC2)nc1` [Example 20, N-(6-{[1-(2,2-difluoroethyl)piperidin-4-yl]oxy}pyridin-3-yl)-3-methyl-5-(quinoxalin-2-ylamino)-1,2-thiazole-4-carboxamide], for which the IC50 (in test [1]; on CDK2/CycE) was no less than 20 µM throughout.
As for `Cc1nsc(Nc2ccc(C#N)cn2)c1C(=O)Nc1cccc(N)c1` [Example 180, N-(3-aminophenyl)-5-[(5-cyanopyridin-2-yl)amino]-3-methyl-1,2-thiazole-4-carboxamide], the IC50 (in test [1]; on CDK2/CycE) was greater than 20 µM in each case.
`Cc1nsc(Nc2cnc(C(F)(F)F)cn2)c1C(=O)Nc1ccc(OCCNC(=O)OC(C)(C)C)nc1` [Example 192, tert-butyl {2-[(5-{[(3-methyl-5-{[5-(trifluoromethyl)pyrazin-2-yl]amino}-1,2-thiazol-4-yl)carbonyl]amino}pyridin-2-yl)oxy]ethyl}carbamate]: the IC50 (in test [1]; at CDK2/CycE) was greater than 20 µM throughout.
Regarding `Cc1nsc(Nc2cnc3ccccc3n2)c1C(=O)Nc1ccc(Nc2ccc(F)c(F)c2)nc1` [Example 245, N-{6-[(3,4-difluorophenyl)amino]pyridin-3-yl}-3-methyl-5-(quinoxalin-2-ylamino)-1,2-thiazole-4-carboxamide], the IC50 was greater than 20 µM in test [1] and 12 µM on CDK2/CycE.
Take `Cc1nsc(Nc2cncc(C(F)(F)F)n2)c1C(=O)Nc1ccc(OCCCN)nc1` [Example 209, N-[6-(3-aminopropoxy)pyridin-3-yl]-3-methyl-5-{[6-(trifluoromethyl)pyrazin-2-yl]amino}-1,2-thiazole-4-carboxamide]: the IC50 (in test [1]; at CDK2/CycE) was greater than 20 µM in each case.
On to `Cc1nsc(Nc2cncc(C(F)(F)F)n2)c1C(=O)Nc1ccc(OC2CCN(CC(F)F)CC2)c(F)c1` [Example 224, N-(4-{[1-(2,2-difluoroethyl)piperidin-4-yl]oxy}-3-fluorophenyl)-3-methyl-5-{[6-(trifluoromethyl)pyrazin-2-yl]amino}-1,2-thiazole-4-carboxamide], for which the IC50 (in test [1]; on CDK2/CycE) was greater than 20 µM in each case.
